Columns and labels:
B16 melanoma = assay: MTT cytotoxicity assay, B16; assay type: cell-based, mouse; settings: Mus musculus, B16, 72 hours (TCS50 in the method)
Procedure, shortened: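 Cells pre-incubated 24 h, then exposed to six 4-fold dilutions (top well concentration typically 266.7 μM) in duplicate for 72 h at 37 °C, 5% CO2. MTT read-out, SDS-solubilized formazan measured at 540 nm. TCS50, the concentration lethal to 50% of tumour cells, derived from dose-response curves.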

normal human lymphocytes = assay: concanavalin A induced lymphocyte proliferation, [3H]-TdR incorporation; assay type: cell-based; settings: Homo sapiens, Lymphocyte, 72 hours, read-out: ED50 (the source's name)
Procedure, shortened: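 Ficoll-isolated human peripheral blood mononuclear cells, stimulated with concanavalin A, exposed to six 4-fold compound dilutions (top well concentration 266.7 μM) for 72 h at 37 °C. Proliferation read as [3H]-TdR incorporation over 6 h by scintillation counting; ED50 taken from dose-response curves relative to control cpm.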

## CCCCCCNc1nc(NC(CO)c2ccccc2)c2ncn(C(C)C)c2n1 (centres unmarked) [P23, 2-(hexylamino)-6-(1-phenyl-2-hydroxyethylamino)-9-isopropylpurine]
B16 melanoma
  IC50: 36.8 µM
Normal human lymphocytes
  EC50: 56 µM
